Counter-ions that a name gives are not always drawn. Where a SMILES comes first, the peptide text is derived from it. Bridges are numbered along the chain shown (N, C = ends).
Assays:
Format in all cases: in vivo
[1] = test system: growth hormone; experiment: Growth hormone level by radioimmunoassay in nembutal-treated rats after subcutaneous injection
Experimental: (§1) The growth hormone activity of the compound of Example 2 was determined by injecting rats weighing about 150 g. first with nembutal intraperitoneally at a dose of 50 mg/kg then after 5 minutes injecting the rats subcutaneously with a solution of the compound of Example 2 in saline at a dose of 100 m.g. per rat. Blood samples are taken 15 minutes after injection with the compound of Example 2 and the growth hormone level determined by radioimmunoassay.
(§2) The activity of the product of Example 3 was determined by the same technique as the compound of Example 2. The dose given the test animals was 1 mg/kg. Growth hormone concentration was reduced to 28±4 ng/ml from the control level of 75±16 (p<0.01). The insulin concentration in micro units per milliliter was reduced marginally to 168±13 from the control level of 208±11 (p>0.05). The glucagon concentration in pico grams per milliliter was not effected, being 31±3 in the treated animals as opposed to 37±2 in the control animals.

[2] = test system: insulin; experiment: Insulin concentration in rats, same technique; settings: dose 1 mg/kg, control level 208±11 (p>0.05), reduced marginally
Experimental: as §1, §2

[3] = test system: glucagon; experiment: Glucagon concentration in rats, same technique; settings: dose 1 mg/kg, control 37±2, not effected
Experimental: as §1, §2

Row | Molecule | growth hormone level ([1]; rats about 150 g, nembutal 50 mg/kg i.p., compound s.c. in saline at 100 m.g. per rat, blood 15 minutes after injection, control 212±26 ng/ml) | insulin concentration [2] | Growth hormone concentration ([1]; rats, dose 1 mg/kg, same technique, control level 75±16 (p<0.01)) | glucagon concentration [3]
1 | C[C@@H](O)[C@@H]1NC(=O)[C@H](Cc2ccccc2)NC(=O)[C@H]([C@@H](C)O)NC(=O)[C@H](CCCCN)NC(=O)[C@H](Cc2c[nH]c3ccccc23)NC(=O)[C@H](Cc2ccccc2)NC(=O)[C@H](Cc2ccccc2)NC(=O)[C@H](CC(N)=O)NC(=O)[C@@H](N)CSSC[C@@H](C(=O)O)NC(=O)[C@H](CO)NC1=O [Example 2, L-Cysteinyl-L-asparaginyl-L-phenylalanyl-L-phenylalanyl-L-tryptophyl-L-lysyl-L-threonyl-L-phenylalanyl-L-threonyl-L-seryl-L-cysteine- (1,11 cyclic disulfide), diacetate salt] (H-CNFFWKTFTSC-OH; disulfide 1-11) | 103 ± 13 ng/mL |  |  | 
2 | N-tert-Butyloxycarbonyl-S-p-methoxybenzyl-L-cysteinyl-L-asparaginyl-L-phenylalanyl-L-phenylalanyl-D-tryptophyl-ε-2-chlorobenzyloxycarbonyl-L-lysyl-O-benzyl-L-threonyl-L-phenylalanyl-O-benzyl-L-threonyl-O-benzyl-L-seryl-S-p-methoxybenzyl-L-cysteinyl-hydroxymethyl polystyrene [Example 3] |  | 168±13 micro units per milliliter | 28 ± 4 ng/mL | 31±3 pico grams per milliliter
